# Results as given in PubChem BioAssay (NCI).
#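 Here, GI50 denotes the concentration required for 50% inhibition of growth. TGI: total growth inhibition.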
# How the values were obtained:
# Assay in all cases: NCI-60 cell line screen, 384-well format
# NCI-H522 lung = test system: NCI-H522 lung
# RXF 393 renal = test system: RXF 393 renal
# PC-3 prostate = test system: PC-3 prostate
# LOX IMVI melanoma = test system: LOX IMVI melanoma
# OVCAR-3 ovarian = test system: OVCAR-3 ovarian
# NCI-H23 lung = test system: NCI-H23 lung
# M14 melanoma = test system: M14 melanoma
# A498 renal = test system: A498 renal
# HT29 colon = test system: HT29 colon
# OVCAR-4 ovarian = test system: OVCAR-4 ovarian
# NCI-H226 lung = test system: NCI-H226 lung
# SNB-75 CNS = test system: SNB-75 CNS
# SR leukemia = test system: SR leukemia
# HOP-92 NSCLC = test system: HOP-92 NSCLC
# UACC-62 melanoma = test system: UACC-62 melanoma
# CCRF-CEM leukemia = test system: CCRF-CEM leukemia
# UO-31 renal = test system: UO-31 renal
# RPMI-8226 leukemia = test system: RPMI-8226 leukemia
# IGROV1 ovarian = test system: IGROV1 ovarian
# SF-268 CNS = test system: SF-268 CNS
# HL-60(TB) leukemia = test system: HL-60(TB) leukemia
# SN12C renal = test system: SN12C renal
# SNB-19 CNS = test system: SNB-19 CNS
# OVCAR-5 ovarian = test system: OVCAR-5 ovarian
# HCT-15 colon = test system: HCT-15 colon
# MDA-MB-231 breast = test system: MDA-MB-231 breast
# UACC-257 melanoma = test system: UACC-257 melanoma
# HCT-116 colon = test system: HCT-116 colon
# TK-10 renal = test system: TK-10 renal
# OVCAR-8 ovarian = test system: OVCAR-8 ovarian
# NCI/ADR-RES ovarian = test system: NCI/ADR-RES ovarian
# SW-620 colon = test system: SW-620 colon
# MOLT-4 leukemia = test system: MOLT-4 leukemia
# HS 578T breast = test system: HS 578T breast
# HOP-62 NSCLC = test system: HOP-62 NSCLC
# EKVX NSCLC = test system: EKVX NSCLC
# COLO 205 colon = test system: COLO 205 colon
# MCF7 breast = test system: MCF7 breast
# SF-295 CNS = test system: SF-295 CNS
# SK-OV-3 ovarian = test system: SK-OV-3 ovarian
# KM12 colon = test system: KM12 colon
# NCI-H460 NSCLC = test system: NCI-H460 NSCLC
# SF-539 CNS = test system: SF-539 CNS
# ACHN renal = test system: ACHN renal
# MALME-3M melanoma = test system: MALME-3M melanoma
# U251 glioblastoma = test system: U251 glioblastoma
# CAKI-1 renal = test system: CAKI-1 renal
# SK-MEL-28 melanoma = test system: SK-MEL-28 melanoma
# MDA-MB-435 melanoma = test system: MDA-MB-435 melanoma
# 786-0 renal = test system: 786-0 renal
# MDA-MB-468 breast = test system: MDA-MB-468 breast
# HCC-2998 colon = test system: HCC-2998 colon
# DU-145 prostate = test system: DU-145 prostate
# BT-549 breast = test system: BT-549 breast
# A549 NSCLC = test system: A549 NSCLC
# NCI-H322M lung = test system: NCI-H322M lung
# T-47D breast = test system: T-47D breast
# SK-MEL-5 melanoma = test system: SK-MEL-5 melanoma
smiles,measurement,setting,value
Cn1cnc2c(F)c(Nc3ccc(Br)cc3F)c(C(=O)NOCCO)cc21,GI50,NCI-H522 lung,> 45.4 µM
same,TGI,NCI-H522 lung,> 100 µM
same,TGI,RXF 393 renal,> 21 µM
same,GI50,PC-3 prostate,> 100 µM
same,TGI,PC-3 prostate,> 100 µM
same,GI50,LOX IMVI melanoma,1.25 µM
same,TGI,LOX IMVI melanoma,18.7 µM
same,GI50,OVCAR-3 ovarian,> 100 µM
same,TGI,OVCAR-3 ovarian,> 100 µM
same,GI50,NCI-H23 lung,0.325 µM
same,TGI,NCI-H23 lung,17.8 µM
same,GI50,M14 melanoma,< 0.0121 µM
same,TGI,M14 melanoma,0.161 µM
same,GI50,A498 renal,16.9 µM
same,TGI,A498 renal,> 100 µM
same,GI50,HT29 colon,0.0524 µM
same,TGI,HT29 colon,> 100 µM
same,GI50,OVCAR-4 ovarian,17.9 µM
same,TGI,OVCAR-4 ovarian,> 100 µM
same,GI50,NCI-H226 lung,0.405 µM
same,TGI,NCI-H226 lung,> 31.9 µM
same,TGI,SNB-75 CNS,> 75.8 µM
same,GI50,SR leukemia,24.7 µM
same,TGI,SR leukemia,> 100 µM
same,GI50,HOP-92 NSCLC,1.38 µM
same,TGI,HOP-92 NSCLC,9.01 µM
same,GI50,UACC-62 melanoma,0.0203 µM
same,TGI,UACC-62 melanoma,1.2 µM
same,GI50,CCRF-CEM leukemia,> 100 µM
same,TGI,CCRF-CEM leukemia,> 100 µM
same,GI50,UO-31 renal,4.96 µM
same,TGI,UO-31 renal,> 45.9 µM
same,GI50,RPMI-8226 leukemia,> 56 µM
same,TGI,RPMI-8226 leukemia,> 100 µM
same,GI50,IGROV1 ovarian,1.55 µM
same,TGI,IGROV1 ovarian,> 100 µM
same,GI50,SF-268 CNS,> 100 µM
same,TGI,SF-268 CNS,> 100 µM
same,GI50,HL-60(TB) leukemia,0.0399 µM
same,TGI,HL-60(TB) leukemia,> 100 µM
same,GI50,SN12C renal,12.5 µM
same,TGI,SN12C renal,> 100 µM
same,GI50,SNB-19 CNS,> 100 µM
same,TGI,SNB-19 CNS,> 100 µM
same,GI50,OVCAR-5 ovarian,0.922 µM
same,TGI,OVCAR-5 ovarian,> 100 µM
same,GI50,HCT-15 colon,> 44.7 µM
same,TGI,HCT-15 colon,> 100 µM
same,GI50,MDA-MB-231 breast,0.422 µM
same,TGI,MDA-MB-231 breast,8.26 µM
same,GI50,UACC-257 melanoma,0.0333 µM
same,TGI,UACC-257 melanoma,0.241 µM
same,GI50,HCT-116 colon,0.498 µM
same,TGI,HCT-116 colon,15.2 µM
same,GI50,TK-10 renal,38.3 µM
same,TGI,TK-10 renal,> 100 µM
same,GI50,OVCAR-8 ovarian,> 67.4 µM
same,TGI,OVCAR-8 ovarian,> 100 µM
same,GI50,NCI/ADR-RES ovarian,93.9 µM
same,TGI,NCI/ADR-RES ovarian,> 100 µM
same,GI50,SW-620 colon,0.0211 µM
same,TGI,SW-620 colon,> 100 µM
same,GI50,MOLT-4 leukemia,> 100 µM
same,TGI,MOLT-4 leukemia,> 100 µM
same,TGI,HS 578T breast,> 88.2 µM
same,TGI,HOP-62 NSCLC,> 100 µM
same,GI50,EKVX NSCLC,29.4 µM
same,TGI,EKVX NSCLC,> 100 µM
same,GI50,COLO 205 colon,< 0.0149 µM
same,TGI,COLO 205 colon,0.322 µM
same,GI50,MCF7 breast,> 100 µM
same,TGI,MCF7 breast,> 100 µM
same,GI50,SF-295 CNS,> 100 µM
same,TGI,SF-295 CNS,> 100 µM
same,GI50,SK-OV-3 ovarian,> 100 µM
same,TGI,SK-OV-3 ovarian,> 100 µM
same,GI50,KM12 colon,0.419 µM
same,TGI,KM12 colon,> 100 µM
same,GI50,NCI-H460 NSCLC,> 100 µM
same,TGI,NCI-H460 NSCLC,> 100 µM
same,GI50,SF-539 CNS,21.9 µM
same,TGI,SF-539 CNS,> 90.9 µM
same,GI50,ACHN renal,> 33.9 µM
same,TGI,ACHN renal,> 100 µM
same,GI50,MALME-3M melanoma,< 0.01 µM
same,TGI,MALME-3M melanoma,0.0159 µM
same,GI50,U251 glioblastoma,12.4 µM
same,TGI,U251 glioblastoma,> 100 µM
same,TGI,CAKI-1 renal,> 100 µM
same,GI50,SK-MEL-28 melanoma,< 0.0143 µM
same,TGI,SK-MEL-28 melanoma,0.162 µM
same,GI50,MDA-MB-435 melanoma,0.1 µM
same,TGI,MDA-MB-435 melanoma,> 100 µM
same,GI50,786-0 renal,> 32.1 µM
same,TGI,786-0 renal,> 100 µM
same,GI50,MDA-MB-468 breast,> 100 µM
same,TGI,MDA-MB-468 breast,> 100 µM
same,GI50,HCC-2998 colon,< 0.01 µM
same,TGI,HCC-2998 colon,0.733 µM
same,GI50,DU-145 prostate,31.8 µM
same,TGI,DU-145 prostate,> 100 µM
same,GI50,BT-549 breast,15.7 µM
same,TGI,BT-549 breast,> 100 µM
same,GI50,A549 NSCLC,0.553 µM
same,TGI,A549 NSCLC,> 100 µM
same,GI50,NCI-H322M lung,1.96 µM
same,TGI,NCI-H322M lung,> 57.7 µM
same,GI50,T-47D breast,> 100 µM
same,TGI,T-47D breast,> 100 µM
same,GI50,SK-MEL-5 melanoma,0.0317 µM
